According to patent US20220160705A1, “METHODS FOR CONTROLLING PROSTAGLANDIN-MEDIATED BIOLOGICAL PROCESSES” (Cornell University, priority 2019, published 2022):
Entries after “also recorded” stand apart in the source; their conditions may differ.

Key:
IRE1α-XBP1 signaling = experiment: Xbp1s and Ptges mRNA in peritoneal leukocytes after acetic acid injection (RT-qPCR); type: in vivo, C57BL/6J mice; details: i.p. 6 hours and 30 minutes before 0.9% v/v acetic acid; KIRA6 25 mg/kg, MKC8866 20 mg/kg; vs vehicle
Experimental: Total RNA was isolated using RNeasy Mini kit or QIAzol lysis reagent (Qiagen) according to the manufacturer's instructions. RNA (0.1-1 μg) was reverse-transcribed to generate cDNA using the qScript cDNA synthesis kit (Quantabio). Quantitative RT-PCR was performed using PerfeCTa SYBR green fastmix (Quantabio) and TaqMan Universal PCR master mix (Life Technologies) on a QuantStudio 6 Flex real-time PCR system (Applied Biosystems). Normalized gene expression was calculated by comparative threshold cycle method using ACTB or Actb as a control. Xbp1 splicing assays were performed as described by Lee et al. (Proc Natl Acad Sci USA 100, 9946 (Aug. 19, 2003)). PCR products were separated by electrophoresis through a 2.5% agarose gel and visualized by ethidium bromide staining. Primers used in this study are described in Table 9.
(§1) To determine if pharmacological disabling of IRE1α-XBP1 signaling could reduce inflammatory visceral pain, two commercially available inhibitors of IRE1α were employed: the kinase domain-specific inhibitor KIRA6 (25 mg/kg) and the RNAse domain-specific inhibitor MKC8866 (20 mg/kg).
(§2) These inhibitors were independently administered intraperitoneally to C57BL/6J mice 6 hours and 30 minutes before acetic acid injection, and writhing behaviors were recorded for 30 minutes.

C57BL/6J mice [1] = experiment: Acetic acid-induced writhing model of inflammatory visceral pain; type: in vivo; details: i.p. 6 hours and 30 minutes before 0.9% v/v acetic acid (5 ml/kg); recorded for 30 minutes; KIRA6 25 mg/kg, MKC8866 20 mg/kg, Celecoxib 20 mg/kg; vs vehicle
Experimental: (§3) All behavioral measurements were performed by a blinded observer before and after surgery (postoperative days 1-21) or acetic acid intraperitoneal injection (15-30 min). Animals were acclimated to the testing devices and/or places for 3 days, and baseline measurements were taken for at least 4 consecutive days before the surgery or acetic acid.
Writhing spontaneous pain behaviors were evaluated after intraperitoneal injection of 0.9% acetic acid (v/v, 5 ml/kg). The number of writhing responses was quantified immediately after acetic acid injection for 30 min in 5 min intervals by an observer blinded to genotype. Writings induced acetic acid are overt stretching behaviors indicative of abdominal pain, a phenomenon that is dependent upon mPGES-1 and PGE2 (Kamei et al. J Biol Chem 279, 33684 (Aug. 6, 2004); Trebino et al. Proc Nat Acad Sci USA 100, 9044 (Jul. 22, 2003)).
as §1, §2

C57BL/6J mice [2] = experiment: Paw incision model of post-surgical pain, behavioral tests; type: in vivo; details: i.p. 6 hours and 30 minutes before paw incision, KIRA6 25 mg/kg, MKC8866 20 mg/kg; for flinching activity after paw incision / grimace score post-surgery / guarding score post-surgery / hind paw weight bearing distribution after paw incision / mechanical hypersensitivity (mechanical threshold) after paw incision / rearing activity after paw incision: Celecoxib 20 mg/kg, vs vehicle; for post-operative pain behaviors: figure legend
Experimental: Plantar incision surgery was performed as described by Pogatzki & Raja (Anesthesiology 99, 1023 (October 2003)). Briefly, mice were anesthetized with isoflurane in oxygen (4% induction, 1.5%-2% for maintenance) and the right hind paw was aseptically cleaned with 10% povidone-iodine solution. Then, a 5 mm incision was made in the glabrous hind-paw skin from the heel to the base of the toes using a No. 11 scalpel and sterile technique. The underlying muscle and ligaments were elevated with a curved forceps and stretched for 6-8 seconds, without incising them. The incision was closed using 5.0 nylon mattress sutures.
as §3
Mice were placed in individual acrylic chambers on an elevated mesh floor for 30-45 min before testing. Two spontaneous pain-relate behaviors were evaluated, rearings and paw flinches. Following the acclimatization period, the number of total vertical rearings and paw flinches were quantified during a 2-min period. Vertical rearings were defined as the number of times that the animal stood supporting its weight on both hind limbs. Vertical rearings are a normal behavior in rodents, thus a reduction of this behavior is indicative of a protective way to prevent pain due to movement, which mimics pain induced by surgeries in humans. Spontaneous flinching of the affected paw was quantified every time that the animal shacked the affected paw without any stimulation. Flinches of the injured paw is a pain-related behavior that is indicative of breakthrough pain, similar to intense spontaneous spike of pain in humans with postoperative pain.
Mechanical hypersensitivity was assessed after quantification of vertical rearings and spontaneous flinching. Mechanical withdrawal thresholds were calculated using the up-down method and applying force with calibrated Von Frey filaments (0.07-g, 0.17-g, 0.40-g, 0.60-g, 1.04-g, 1.37-g, and 2.0-g, Stoeling, Wood Dale, Ill., USA) to the plantar aspect of the paw for 5 seconds. Paw withdraws or flinching in response to a given applied force was noted as a positive response.
Hind paw weight bearing distribution was determined using an incapacitance tester apparatus (Stoelting, Ill., version 5.64). This is a test for non-reflexive behaviors that represents a spontaneous pain-related behavior that mimics postoperative pain behaviors in humans (protection of the surgery site from normal activities). Before surgery, animals were habituated for at least 3 days to the apparatus, in which animals stand with each hind paw resting on individual weight plates inside an acrylic chamber. The apparatus measures the body weight distributed between the two hind paws over a 3 second period and provides the average measurement. The average value of each hind paw was used to determine the weight distribution ratio (ispsilateral/contralateral side). A ratio below one indicates a greater weight bearing on the contralateral paw and was therefore considered as a pain-related behavior.
To determine whether pharmacological targeting of IRE1α could also modulate post-surgical pain. KIRA6 (FIG. 9A-9F) or MKC8866 (FIG. 10) was administered i.p. 6 hours and 30 minutes prior to paw incision surgery, and pain responses were monitored thereafter. […] Consistent with our results using conditional IRE1α-deficient mice, mechanical hypersensitivity remained unaltered upon administration of IRE1α inhibitors (FIGS. 9F and 10F). As a positive control, we administered equimolar amounts (20 mg/kg) of Celecoxib following the same scheme and route described above. […]

Structure (SMILES) | Ptges expression in peritoneal leukocytes (IRE1α-XBP1 signaling) | Xbp1s expression in peritoneal leukocytes (IRE1α-XBP1 signaling) | number of writhings after acetic acid injection (C57BL/6J mice [1]) | flinching activity after paw incision (C57BL/6J mice [2]) | grimace score post-surgery (C57BL/6J mice [2]) | guarding score post-surgery (C57BL/6J mice [2]) | hind paw weight bearing distribution after paw incision (C57BL/6J mice [2]) | mechanical hypersensitivity (mechanical threshold) after paw incision (C57BL/6J mice [2]) | rearing activity after paw incision (C57BL/6J mice [2]) | post-operative pain behaviors (C57BL/6J mice [2])
CC(C)(C)c1nc(-c2ccc(NC(=O)Nc3cccc(C(F)(F)F)c3)c3ccccc23)c2c(N)nccn12 [KIRA6] | significantly reduced | significantly reduced | reduced; also recorded: decreased | reduced | significantly reduced | significantly reduced | more balanced | unaltered | unchanged | reduces
COc1cc2c(C)c(CC(=O)N3CCOCC3)c(=O)oc2c(C=O)c1O [MKC8866] | significantly reduced | significantly reduced | reduced; also recorded: decreased | reduced | significantly reduced | significantly reduced | more balanced | unaltered | unchanged | reduces
